Experimental data taken from US20240368174A1, “Antiviral Heterocyclic Compounds” (Enanta Pharmaceuticals, Inc., priority 2023, published 2024).

These compounds were tested on HMPV clinical isolate A2 strain TN 94-49 (assay: HMPV antiviral assay, Method 2 (LLC-MK2 cells with CP-100-356, ATP-Lite)). Conditions: human metapneumovirus; hMPV A2 TN/94-49, LLC-MK2 cells with CP-100-356, Method 2.
Assay type: cell-based
How it was run: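 EC50 comes from a four-parameter fit of percent cell viability (ATP-Lite, normalized to virus-only and cell-only wells) after 7 days at 37 °C. Infection used HMPV A2 TN 94-49 at MOI 0.16 in LLC-MK2 cells, with 2 μM P-gp inhibitor CP-100-356 and 2 μg/mL TPCK-trypsin final; dose range 200 nM top, 2.5-fold, 10 points, duplicate.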
With `COc1cc(C(=O)NCC(O)(c2cccc(F)c2)c2cc3c(c(-c4cccc(Cl)c4C#N)n2)OC[C@]3(C)C(N)=O)cc2cn(C3(F)CC3)nc12` (stereo partly shown) [Example 399] the EC50 was > 200 nM.
For `COc1cc(C(=O)NC[C@@](O)(c2cccc(F)c2)c2cc3c(c(-c4cc(F)c(F)cc4C(N)=O)n2)OC[C@]3(C)C(N)=O)cc2cn(C3(F)CC3)nc12` [Example 405], the EC50 was > 200 nM.
In the case of `COc1cc(C(=O)NC[C@](O)(c2cccc(F)c2)c2cc3c(c(-c4cc(F)c(F)cc4C(N)=O)n2)OC[C@]3(C)C(N)=O)cc2cn(C3(F)CC3)nc12` [Example 406], the EC50 is reported as > 200 nM.
In the case of `COc1cc(C(=O)NC[C@](O)(c2cccc(F)c2)c2cc3c(c(-c4cc(C(F)(F)F)ncc4F)n2)OC[C@]3(C)C(N)=O)cc2cn(C3CC3)nc12` [Example 409], the EC50 is reported as > 200 nM.
For `COc1cc(C(=O)NC[C@](O)(c2cccc(F)c2)c2cc3c(c(-c4cc(Cl)ncc4F)n2)OC[C@]3(C)C(N)=O)cc2cn(C3CC3)nc12` [Example 411], the EC50 was > 200 nM.
In the case of `COc1cc(C(=O)NCC(O)(c2cc3c(c(-c4cc(C(F)(F)F)ncc4Cl)n2)OC[C@]3(C)C(N)=O)C2CC2)cc2cn(C3CC3)nc12` (stereo partly shown) [Example 418], the EC50 is reported as > 200 nM.
With `COc1cc(C(=O)NC[C@](O)(c2cc3c(c(-c4ccnc(Cl)c4C)n2)OC[C@]3(C)C(N)=O)C2CC2)cc2cn(C3CC3)nc12` [Example 427] the EC50 was < 200 nM.
For `COc1cc(C(=O)NC[C@](O)(c2cc3c(c(-c4ccnc(C)c4F)n2)OC[C@]3(C)C(N)=O)C2CC2)cc2cn(C3CC3)nc12` [Example 428], the EC50 was < 200 nM.
In the case of `COc1cc(C(=O)NC[C@](O)(c2cc3c(c(-c4ccnc5[nH]ccc45)n2)OC[C@]3(C)C(N)=O)C2CC2)cc2cn(C3CC3)nc12` [Example 429], the EC50 is reported as > 200 nM.
In the case of `COc1cc(C(=O)NC[C@](O)(c2cc3c(c(-c4ccnc5ccccc45)n2)OC[C@]3(C)C(N)=O)C2CC2)cc2cn(C3CC3)nc12` [Example 430], the EC50 is reported as < 200 nM.
In the case of `COc1cc(C(=O)NC[C@](O)(c2cc3c(c(-c4c(C)cncc4C)n2)OC[C@]3(C)C(N)=O)C2CC2)cc2cn(C3CC3)nc12` [Example 431], the EC50 is reported as < 200 nM.
`COc1cc(C(=O)NC[C@](O)(c2cc3c(c(-c4cc(C5CC5)ncc4F)n2)OC[C@]3(C)C(N)=O)C2CC2)cc2cn(C3CC3)nc12` [Example 432] was tested, and the EC50 was < 200 nM.
For `COc1cc(C(=O)NC[C@](O)(c2cc3c(c(-c4c(F)cncc4F)n2)OC[C@]3(C)C(N)=O)C2CC2)cc2cn(C3CC3)nc12` [Example 433], the EC50 was < 200 nM.
For `COc1cc(C(=O)NC[C@](O)(c2cc3c(c(-c4c(F)cncc4Cl)n2)OC[C@]3(C)C(N)=O)C2CC2)cc2cn(C3CC3)nc12` [Example 434], the EC50 was < 200 nM.
`COc1cc(C(=O)NC[C@](O)(c2cc3c(c(-c4c(C)cncc4F)n2)OC[C@]3(C)C(N)=O)C2CC2)cc2cn(C3CC3)nc12` [Example 435] was tested, and the EC50 was < 200 nM.
For `COc1cc(C(=O)NC[C@@](O)(c2cc3c(c(-n4ccc5ccccc54)n2)OC[C@]3(C)C(N)=O)C2CC2)cc2cn(C3CC3)nc12` [Example 444], the EC50 was > 200 nM.
`COc1cc(C(=O)NC[C@](O)(c2cc3c(c(-n4ccc5cnccc54)n2)OC[C@]3(C)C(N)=O)C2CC2)cc2cn(C3CC3)nc12` [Example 447] was tested, and the EC50 was < 200 nM.
With `COc1cc(C(=O)NC[C@](O)(c2cc3c(c(-n4ccc5ccncc54)n2)OC[C@]3(C)C(N)=O)C2CC2)cc2cn(C3CC3)nc12` [Example 448] the EC50 was > 200 nM.
With `COc1cc(C(=O)NC[C@](O)(c2cc3c(c(-n4ccc5ccccc54)n2)OC[C@]3(C)C(N)=O)C(F)(F)F)cc2cn(C(F)F)nc12` [Example 449] the EC50 was < 200 nM.
With `COc1cc(C(=O)NC[C@](O)(c2cc3c(c(-c4cc(Cl)c(F)cc4F)n2)OC[C@]3(C)C(N)=O)c2nccn2C)cc2cn(C3CC3)nc12` [Example 464] the EC50 was > 200 nM.
In the case of `COc1cc(C(=O)NCC(O)(c2cc3c(c(-c4cc(Cl)c(F)cc4F)n2)OC[C@]3(C)C(N)=O)c2ccc(Cl)s2)cc2cn(C3CC3)nc12` (stereo partly shown) [Example 472], the EC50 is reported as > 200 nM.
`COc1cc(C(=O)NC[C@@](O)(c2cnc(C3CC3)nc2)c2cc3c(c(-c4cc(Cl)c(F)cc4F)n2)OC[C@]3(C)C(N)=O)cc2cn(C3CC3)nc12` [Example 478] was tested, and the EC50 was < 200 nM.
With `COc1cc(C(=O)NC[C@@](O)(c2cncnc2)c2cc3c(c(-c4cc(Cl)c(F)cc4F)n2)OC[C@]3(C)C(N)=O)cc2cn(C3CC3)nc12` [Example 479] the EC50 was < 200 nM.
`COc1cc(C(=O)NC[C@](O)(c2cc3c(c(-c4cc(Cl)c(F)cc4F)n2)OC[C@]3(C)C(N)=O)c2ccn(C)n2)cc2cn(C3CC3)nc12` [Example 480] was tested, and the EC50 was < 200 nM.
For `COc1cc(C(=O)NC[C@](O)(c2cc3c(c(-c4cc(Cl)c(F)cc4F)n2)OC[C@]3(C)C(N)=O)c2ccnn2C)cc2cn(C3CC3)nc12` [Example 481], the EC50 was < 200 nM.
`COc1cc(C(=O)NC[C@@](O)(c2ccc(S(C)(=O)=O)cc2)c2cc3c(c(-c4cc(Cl)c(F)cc4F)n2)OC[C@]3(C)C(N)=O)cc2cn(C3CC3)nc12` [Example 482] was tested, and the EC50 was > 200 nM.
For `COc1cc(C(=O)NC[C@@](O)(c2cccc(S(C)(=O)=O)c2)c2cc3c(c(-c4cc(Cl)c(F)cc4F)n2)OC[C@]3(C)C(N)=O)cc2cn(C3CC3)nc12` [Example 483], the EC50 was < 200 nM.
`COc1cc(C(=O)NC[C@@](O)(c2ccnc(N)c2)c2cc3c(c(-c4cc(Cl)c(F)cc4F)n2)OC[C@]3(C)C(N)=O)cc2cn(C3CC3)nc12` [Example 484] was tested, and the EC50 was < 200 nM.
In the case of `COc1cc(C(=O)NC[C@@](O)(c2ccnc(C)c2)c2cc3c(c(-c4cc(Cl)c(F)cc4F)n2)OC[C@]3(C)C(N)=O)cc2cn(C3CC3)nc12` [Example 485], the EC50 is reported as < 200 nM.
In the case of `COc1cc(C(=O)NC[C@@](O)(c2cccc(S(N)(=O)=O)c2)c2cc3c(c(-c4cc(Cl)c(F)cc4F)n2)OC[C@]3(C)C(N)=O)cc2cn(C3CC3)nc12` [Example 486], the EC50 is reported as > 200 nM.
In the case of `COc1cc(C(=O)NC[C@@](O)(c2cnccn2)c2cc3c(c(-c4cc(Cl)c(F)cc4F)n2)OC[C@]3(C)C(N)=O)cc2cn(C3CC3)nc12` [Example 487], the EC50 is reported as < 200 nM.
`COc1cc(C(=O)NC[C@@](O)(c2cccc(C#N)c2)c2cc3c(c(-c4cc(Cl)c(F)cc4F)n2)OC[C@]3(C)C(N)=O)cc2cn(C3CC3)nc12` [Example 488] was tested, and the EC50 was < 200 nM.
`COc1cc(C(=O)NC[C@@](O)(c2cccc(Cl)n2)c2cc3c(c(-c4cc(Cl)c(F)cc4F)n2)OC[C@]3(C)C(N)=O)cc2cn(C3CC3)nc12` [Example 489] was tested, and the EC50 was < 200 nM.
In the case of `CNc1cc([C@](O)(CNC(=O)c2cc(OC)c3nn(C4CC4)cc3c2)c2cc3c(c(-c4cc(Cl)c(F)cc4F)n2)OC[C@]3(C)C(N)=O)ccn1` [Example 490], the EC50 is reported as < 200 nM.
In the case of `COc1cc(C(=O)NC[C@@](O)(c2cnoc2)c2cc3c(c(-c4cc(Cl)c(F)cc4F)n2)OC[C@]3(C)C(N)=O)cc2cn(C3CC3)nc12` [Example 491], the EC50 is reported as < 200 nM.
For `COc1cc(C(=O)NC[C@@](O)(c2ccnc(F)c2)c2cc3c(c(-c4cccc(Cl)c4Cl)n2)OC[C@]3(C)C(N)=O)cc2cn(C3CC3)nc12` [Example 492], the EC50 was < 200 nM.
`COc1cc(C(=O)NC[C@@](O)(c2cccc(C(C)=O)c2)c2cc3c(c(-c4cccc(Cl)c4Cl)n2)OC[C@]3(C)C(N)=O)cc2cn(C3CC3)nc12` [Example 493] was tested, and the EC50 was < 200 nM.
With `COc1cc([C@](O)(CNC(=O)c2cc(OC)c3nn(C4CC4)cc3c2)c2cc3c(c(-c4cccc(Cl)c4Cl)n2)OC[C@]3(C)C(N)=O)ccn1` [Example 494] the EC50 was < 200 nM.
In the case of `COc1cc(C(=O)NC[C@@](O)(c2cccc(C(C)O)c2)c2cc3c(c(-c4cccc(Cl)c4Cl)n2)OC[C@]3(C)C(N)=O)cc2cn(C3CC3)nc12` (stereo partly shown) [Example 495], the EC50 is reported as > 200 nM.
`COc1cccc([C@](O)(CNC(=O)c2cc(OC)c3nn(C4CC4)cc3c2)c2cc3c(c(-c4cccc(Cl)c4Cl)n2)OC[C@]3(C)C(N)=O)n1` [Example 496] was tested, and the EC50 was < 200 nM.
For `COc1cc([C@](O)(CNC(=O)c2cc(OC)c3nn(C4CC4)cc3c2)c2cc3c(c(-c4cccc(Cl)c4Cl)n2)OC[C@]3(C)C(N)=O)cc(OC)n1` [Example 497], the EC50 was < 200 nM.
In the case of `COc1cc([C@](O)(CNC(=O)c2cc(OC)c3nn(C(F)F)cc3c2)c2cc3c(c(-c4cccc(Cl)c4Cl)n2)OC[C@]3(C)C(N)=O)cc(OC)n1` [Example 498], the EC50 is reported as < 200 nM.
In the case of `COc1cc(C(=O)NCC(O)(c2cc(F)nc(F)c2)c2cc3c(c(-c4cccc(Cl)c4Cl)n2)OC[C@]3(C)C(N)=O)cc2cn(C3CC3)nc12` (stereo partly shown) [Example 499], the EC50 is reported as < 200 nM.
`COc1cc(C(=O)NCC(O)(c2cc(F)nc(F)c2)c2cc3c(c(-c4cccc(Cl)c4Cl)n2)OC[C@]3(C)C(N)=O)cc2cn(C(F)F)nc12` (stereo partly shown) [Example 500] was tested, and the EC50 was < 200 nM.
In the case of `COc1cc(C(=O)NC[C@@](O)(c2ccnc(C#N)c2)c2cc3c(c(-c4cc(Cl)c(F)cc4F)n2)OC[C@]3(C)C(N)=O)cc2cn(C3CC3)nc12` [Example 501], the EC50 is reported as < 200 nM.
For `COc1cc([C@](O)(CNC(=O)c2cc(OC)c3nn(C4CC4)cc3c2)c2cc3c(c(-c4cc(Cl)c(F)cc4F)n2)OC[C@]3(C)C(N)=O)cc(F)n1` [Example 503], the EC50 was < 200 nM.
For `COc1cc(C(=O)NC[C@@](O)(c2cc[nH]c(=O)c2)c2cc3c(c(-c4cc(Cl)c(F)cc4F)n2)OC[C@]3(C)C(N)=O)cc2cn(C3CC3)nc12` [Example 504], the EC50 was > 200 nM.
`COc1cc(C(=O)NC[C@@](O)(c2ccc(=O)[nH]c2)c2cc3c(c(-c4cc(Cl)c(F)cc4F)n2)OC[C@]3(C)C(N)=O)cc2cn(C3CC3)nc12` [Example 505] was tested, and the EC50 was > 200 nM.
For `COc1cc(C(=O)NC[C@](O)(c2cc3c(c(-c4cc(Cl)c(F)cc4F)n2)OC[C@]3(C)C(N)=O)C2(C)CC2)cc2cn(C3CC3)nc12` [Example 516], the EC50 was < 200 nM.
In the case of `COc1cc(C(=O)NC[C@](O)(c2cc3c(c(-c4ccnc(Cl)c4Cl)n2)OC[C@]3(C)C(N)=O)C2(F)CC2)cc2cn(C3(F)CC3)nc12` [Example 519], the EC50 is reported as < 200 nM.
`COc1cc(C(=O)NC[C@](O)(c2cc3c(c(-c4ccnc(Cl)c4Cl)n2)OC[C@]3(C)C(N)=O)C2(F)CC2)cc2oc(C3CC3)nc12` [Example 520] was tested, and the EC50 was < 200 nM.
`COc1cc(C(=O)NC[C@](O)(c2cc3c(c(-c4ccnc(Cl)c4Cl)n2)OC[C@]3(C)C(N)=O)C2(F)CC2)cc2cn(C(F)F)nc12` [Example 521] was tested, and the EC50 was < 200 nM.
